{"source": "patent US7838515B2", "about": "“Formulations of quaternary ammonium neuromuscular blocking agents” (Lyotropic Therapeutics, Inc., priority 2005, dated 2010)", "key": {"[1]": {"test": "HPLC stability of vecuronium bromide solutions with anionic additives (Example 1)", "format": "physicochemical", "method": "HPLC System was a Shimadzu VP Series that consists of the following components: SPD-M10A—Diode Array Detector; SIL-10AD—Autosampler; LC-10AT—Pump; SCL-10A—Controller; and Shimadzu EZ Start Version 7.2 SP 1 Revision B—Software.\nIn this Example a number of anionic compounds, with various pKa's and carbon numbers, were compared for their ability to stabilize vecuronium in solution.\nThe following chart gives the compositions that were prepared and examined by HPLC for stability over time. Each sample contained approximately 1 mg/mL vecuronium bromide. […] All numerical entries in the chart are actual recorded weights in grams: […]"}, "[2]": {"conditions": "cited from earlier work"}, "[3]": {"test": "Cubic phase-water partitioning of vecuronium (HPLC)", "format": "physicochemical", "excerpt": "It is this hydrophobic milieu that is central to the invention, in limiting the contact between water and the labile group(s) of the drug."}, "[4]": {"test": "Shelf-life of vecuronium bromide control solutions (HPLC, 15% potency lost)", "format": "physicochemical", "conditions": "for shelf-life of solution: 1 mg/ml in water, point at which 15% of potency is lost", "excerpt": "In the Examples below, where HPLC assay results for vecuronium are reported, the following gives the parameters of the HPLC measurement. HPLC System was a Shimadzu VP Series that consists of the following components: SPD-M10A—Diode Array Detector; SIL-10AD—Autosampler; LC-10AT—Pump; SCL-10A—Controller; and Shimadzu EZ Start Version 7.2 SP 1 Revision B—Software. Chromatographic Parameters: Mobile Phase—60% Acetonitrile, 25% Methanol, 15% 0.1M TMAH (pH=6.5); Column—25 cm×4.6 mm Phenomenex Luna C18 5 μm; Wavelength—210 nm; Injection Volume—5 μL; Flow Rate—1.0 mL/min; Standard Preparation—1 mg/mL in 0.001N HCl/Methanol; and Sample Preparation—1 mg/mL—Undiluted.\nIn the case of vecuronium at pH 6 and 25° C., the shelf-life of just under 1 week was recorded for both a maleate-TRIS buffer and an HCl-acidified vecuronium solution."}, "twitch response": {"system": "twitch response", "conditions": "0.08 to 0.1 mg/Kg, balanced anesthesia; cited from earlier work"}, "[5]": {"conditions": "25° C. and 40° C. data of Example 1"}, "[6]": {"conditions": "with a charged surfactant (sodium glycocholate)"}}, "note": "Like-named read-outs stand apart in the source and are kept apart here.", "data": [{"molecule": "O=S(=O)(O)c1ccccc1", "note": "[benzenesulfonic, benzenesulfonic acid]", "values": [{"measurement": "effect of the additive on vecuronium solution stability (in words)", "setting": "[1]", "result": "most stable solutions"}]}, {"molecule": "O=C(O)/C=C\\C(=O)O", "note": "[maleic]", "values": [{"measurement": "pKa", "setting": "[2]", "result": 3.9}]}, {"molecule": "C[C@H](CCC(=O)O)[C@H]1CC[C@H]2[C@@H]3CC[C@@H]4C[C@H](O)CC[C@]4(C)[C@H]3C[C@H](O)[C@]12C", "note": "[deoxycholic acid]", "values": [{"measurement": "pKa", "setting": "[2]", "result": "about 5.7"}]}, {"molecule": "CCCCCCCC(=O)O", "note": "[octanoic, Octanoic acid]", "values": [{"measurement": "effect of the additive on vecuronium solution stability (in words)", "setting": "[1]; [5]", "result": "equally bad"}]}, {"molecule": "Cc1ccc(S(=O)(=O)O)cc1", "note": "[toluenesulfonic, toluenesulfonic acid]", "values": [{"measurement": "effect of the additive on vecuronium solution stability (in words)", "setting": "[1]", "result": "most stable solutions"}]}, {"molecule": "CC(=O)O[C@H]1C[C@@H]2CC[C@@H]3[C@H](CC[C@@]4(C)[C@H]3C[C@H]([N+]3(C)CCCCC3)[C@@H]4OC(C)=O)[C@@]2(C)C[C@@H]1N1CCCCC1", "note": "[Vecuronium, vecuronium bromide]", "values": [{"measurement": "KQW (cubic-water partition coefficient)", "setting": "[3]; [6]", "result": "10,000"}, {"measurement": "concentration in the aqueous phase", "setting": "[3]; [6]", "result": 1, "unit": "µg/mL"}, {"measurement": "concentration in the cubic phase", "setting": "[3]; [6]", "result": 10600, "unit": "µg/mL"}, {"measurement": "log KQW", "setting": "[3]; [6]", "result": "+4"}, {"measurement": "KQW (cubic-water partition coefficient)", "setting": "[3]; without a charged surfactant", "result": "1,667"}, {"measurement": "concentration in the aqueous phase", "setting": "[3]; without a charged surfactant", "result": 6, "unit": "µg/mL"}, {"measurement": "concentration in the cubic phase", "setting": "[3]; without a charged surfactant", "result": 10000, "unit": "µg/mL"}, {"measurement": "log KQW", "setting": "[3]; without a charged surfactant", "result": "+3.2"}, {"measurement": "shelf-life of solution", "setting": "[4]; pH 6.0, 4° C.", "result": 5, "unit": "weeks"}, {"measurement": "shelf-life of solution", "setting": "[4]; pH 6.0, 25° C.", "result": 1, "unit": "week"}, {"measurement": "time until potency is reduced to 85% of initial", "setting": "[4]; control solution at same pH (5.2) and temperature (25° C.)", "result": "about 2 weeks"}, {"measurement": "shelf-life", "setting": "[4]; pH 6, 25° C., both maleate-TRIS buffer and HCl-acidified solution", "result": "under 1 week"}, {"measurement": "time to first depression of twitch response", "setting": "twitch response", "result": "approximately 1 minute"}]}, {"molecule": "C[C@H](CCC(=O)NCC(=O)O)[C@H]1CC[C@H]2[C@@H]3[C@H](O)C[C@@H]4C[C@H](O)CC[C@]4(C)[C@H]3C[C@H](O)[C@]12C", "note": "[glycocholic, glycocholic acid]", "values": [{"measurement": "pKa", "setting": "[2]", "result": "approximately 3.5"}, {"measurement": "pKa", "setting": "[2]; listed as glycocholate", "result": 3.5}]}, {"molecule": "CC(=O)N[C@@H](Cc1c[nH]c2ccccc12)C(=O)O", "note": "[N-acetyltryptophan]", "values": [{"measurement": "effect of the additive on vecuronium solution stability (in words)", "setting": "[1]; [5]", "result": "performed very poorly at the higher temperature"}, {"measurement": "pKa", "setting": "[2]", "result": 3.4}]}, {"molecule": "O=C(O)c1cc(O)ccc1O", "note": "[gentisic, gentisic acid]", "values": [{"measurement": "effect of the additive on vecuronium solution stability (in words)", "setting": "[1]", "result": "most stable solutions"}]}, {"molecule": "O=C1NS(=O)(=O)c2ccccc21", "note": "[saccharin]", "values": [{"measurement": "effect of the additive on vecuronium solution stability (in words)", "setting": "[1]", "result": "most stable solutions"}, {"measurement": "pKa", "setting": "[2]", "result": 2.0}]}, {"molecule": "CCCCCCCCCCCCCC(=O)OCC(COP(=O)(O)OCC(O)CO)OC(=O)CCCCCCCCCCCCC", "note": "(stereo not drawn) [DMPG, dimyristoylphosphatidylglycerol]", "values": [{"measurement": "pKa", "setting": "[2]", "result": "approx. 3.0"}, {"measurement": "pKa", "setting": "[2]; listed as Dimyristoyl phosphatidylglycerol", "result": "about 3.0"}]}]}
